PMC7217877, “N-AS-triggered SPMs are direct regulators of microglia in a model of Alzheimer’s disease” (Nature Communications, 2020)
Positions count from the first letter of the chain named. Values joined by “and” are separate entries in the source; they are usually repeats but may differ in a detail not shown here. Equal entries are not always repeated.

How the values were obtained:
Experiment in all cases: filter binding assay of [14C] N-AS to COX2
Details in all cases: replicates
[1] = target: T1, COX2 N181A (Homo sapiens, UniProt P35354, N181A)
T1 construct: His (N); made in house
T1 sequence (P35354 18-604 N181A): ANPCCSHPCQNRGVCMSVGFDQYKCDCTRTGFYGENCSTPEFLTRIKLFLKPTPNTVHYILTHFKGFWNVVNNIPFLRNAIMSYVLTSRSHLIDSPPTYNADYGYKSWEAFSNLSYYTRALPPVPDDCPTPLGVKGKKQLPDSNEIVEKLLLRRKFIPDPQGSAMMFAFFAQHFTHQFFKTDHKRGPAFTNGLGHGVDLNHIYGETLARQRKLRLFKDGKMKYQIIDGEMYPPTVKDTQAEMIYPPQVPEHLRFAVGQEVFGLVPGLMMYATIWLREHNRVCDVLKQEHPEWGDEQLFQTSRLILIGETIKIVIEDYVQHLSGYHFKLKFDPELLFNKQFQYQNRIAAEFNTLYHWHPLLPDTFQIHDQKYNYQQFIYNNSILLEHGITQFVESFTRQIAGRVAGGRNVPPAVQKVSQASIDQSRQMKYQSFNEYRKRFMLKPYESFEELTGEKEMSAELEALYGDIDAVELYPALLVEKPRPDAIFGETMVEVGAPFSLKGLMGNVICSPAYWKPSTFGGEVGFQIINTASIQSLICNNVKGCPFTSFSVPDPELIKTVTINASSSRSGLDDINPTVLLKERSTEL
From the text: (§1) Single point mutations in SphK1 (R56A, R57A, R24A, R185A, D178A, and F192A) and COX2 (S565A, N181A, T564A, and S567A) were generated using the In-Fusion Cloning Kits (Clontech) and ORF cDNA expression plasmids of human SphK1 and COX2 gene (Sino Biological Inc, HG15679-NH and HG12036-NH), according to the manufacturer’s instructions. The forward and reverse primers described in Supplementary Table 4. The SphK1 WT, SphK1 mutants, COX2 WT, and COX2 mutant plasmids were transformed in the One shot TOP 10 competent cell (Invitrogen). The bacteria were grown in Luria-Bertani (LB, Invitrogen) plates supplemented with 50 μg ml^−1 kanamycin (Sigma-Aldrich) at 37 °C. The bacterial cell pellets were resuspended in lysis buffer containing 20 mM sodium phosphate (GE Healthcare), 500 mM NaCl (GE Healthcare), 20 mM imidazole (pH 7.4) (GE Healthcare), 0.2 mg ml^−1 lysozyme (Sigma-Aldrich), 20 μg ml^−1 DNase I (Roche), 1 mM MgCl2 (Sigma-Aldrich), and 1 mM PMSF (Sigma-Aldrich) before being lysed by sonication and clarified by centrifugation at 15,493×g for 10 min. Proteins were purified from the soluble fraction using His-Spin Trap columns (GE Healthcare) and the binding and acetylation assays were performed.
(§2) Briefly, SphK1 WT and mutant enzymes (1 mU) were resuspended in 100 μl reaction buffer (20 mM HEPES; pH 7.4, 50 mM NaCl, 10 mM MgCl2, 1 mM EGTA, 0.02% Triton-X100, and 100 μM sphingosine, all from Sigma-Aldrich). […] Briefly, COX2 WT and mutant enzymes (1 mU) were resuspended in 100 μl reaction buffer (20 mM HEPES; pH 7.4, 50 mM NaCl, 10 mM MgCl2, 1 mM EGTA, and 0.02% Triton-X100, all from Sigma-Aldrich). Reactions were initiated by adding [^14C] N-AS (1–200 μM (0.1–20 μCi), ARC UK Ltd, ARC-1024) and incubated at 37 °C for 1 h. The reactions were terminated by adding 100 μl of ice-cold reaction buffer containing 5 mM cold N-AS and immediately filtered through P30 filtermat (Perkin-Elmer), followed by five washes.
(§3) The binding velocity was plotted and the Kcat and KM values were calculated from the Michaelis-Menten analysis using the Sigma-plot program (ver 10.0, Systat software Inc.).

[2] = target: T2, COX2 S565A (Homo sapiens, UniProt P35354, S565A)
T2 construct: His (N); made in house
T2 sequence (P35354 18-604 S565A): T1 sequence (P35354 18-604 N181A) with A164N, S548A
From the text: as §1, §2, §3

[3] = target: T3, COX2 S567A (Homo sapiens, UniProt P35354, S567A)
T3 construct: His (N); made in house
T3 sequence (P35354 18-604 S567A): T1 sequence (P35354 18-604 N181A) with A164N, S550A
From the text: as §1, §2, §3

For `CCCCCCCCCCCCC/C=C/[C@@H](O)[C@H](CO)NC(C)=O` [N-AS, N-((2S,3R,E)-1,3-Dihydroxyoctadec-4-en-2-yl)acetamide], the “binding velocity (Vbinding)” value ([1]; 1 uM) was 0.642 nM/min and 0.892 nM/min and 0.879 nM/min, the “binding velocity (Vbinding)” value ([1]; 5 uM) was 7.037 nM/min and 14.518 nM/min and 5.980 nM/min and the “binding velocity (Vbinding)” value ([1]; 10 uM) was 11.465 nM/min and 12.134 nM/min and 6.758 nM/min. For the same compound, the “binding velocity (Vbinding)” value ([1]; 20 uM) was 15.248 nM/min and 14.109 nM/min and 13.356 nM/min, the “binding velocity (Vbinding)” value ([1]; 100 uM) was 24.771 nM/min and 29.019 nM/min and 25.078 nM/min and the “binding velocity (Vbinding)” value ([1]; 200 uM) was 41.872 nM/min and 40.849 nM/min and 37.213 nM/min. For the same compound, the “binding velocity (Vbinding)” value ([2]; 1 uM) was 0.294 nM/min and 0.145 nM/min and 0.375 nM/min, the “binding velocity (Vbinding)” value ([2]; 5 uM) was 4.092 nM/min and 3.850 nM/min and 4.567 nM/min and the “binding velocity (Vbinding)” value ([2]; 10 uM) was 6.171 nM/min and 6.000 nM/min and 6.819 nM/min. For the same compound, the “binding velocity (Vbinding)” value ([2]; 20 uM) was 11.138 nM/min and 12.964 nM/min and 8.904 nM/min, the “binding velocity (Vbinding)” value ([2]; 100 uM) was 19.545 nM/min and 19.934 nM/min and 20.173 nM/min and the “binding velocity (Vbinding)” value ([2]; 200 uM) was 28.985 nM/min and 29.725 nM/min and 29.810 nM/min. For the same compound, the “binding velocity (Vbinding)” value ([3]; 0.2 uM) was 0.844 nM/min and 0.872 nM/min and 0.519 nM/min and the “binding velocity (Vbinding)” value ([3]; 1 uM) was 1.046 nM/min.
